According to publication PMC6944674, “Comparison of the Hepatotoxic Potential of Two Treatments for Autosomal-Dominant Polycystic Kidney DiseaseUsing Quantitative Systems Toxicology Modeling” (Pharmaceutical Research, 2020):

Legend:
[1] = molecular target: T1, MRP3 and MRP4 (basolateral transport) (Homo sapiens, UniProt O15439); test: Basolateral inhibition constant: lowest IC50 of the MRP3 and MRP4 vesicular assays; type: biochemical; conditions: membrane vesicles (vesicular transport assay), lowest IC50 of the experimentally derived MRP3 and MRP4 IC50 values
T1 sequence (O15439 1-1325): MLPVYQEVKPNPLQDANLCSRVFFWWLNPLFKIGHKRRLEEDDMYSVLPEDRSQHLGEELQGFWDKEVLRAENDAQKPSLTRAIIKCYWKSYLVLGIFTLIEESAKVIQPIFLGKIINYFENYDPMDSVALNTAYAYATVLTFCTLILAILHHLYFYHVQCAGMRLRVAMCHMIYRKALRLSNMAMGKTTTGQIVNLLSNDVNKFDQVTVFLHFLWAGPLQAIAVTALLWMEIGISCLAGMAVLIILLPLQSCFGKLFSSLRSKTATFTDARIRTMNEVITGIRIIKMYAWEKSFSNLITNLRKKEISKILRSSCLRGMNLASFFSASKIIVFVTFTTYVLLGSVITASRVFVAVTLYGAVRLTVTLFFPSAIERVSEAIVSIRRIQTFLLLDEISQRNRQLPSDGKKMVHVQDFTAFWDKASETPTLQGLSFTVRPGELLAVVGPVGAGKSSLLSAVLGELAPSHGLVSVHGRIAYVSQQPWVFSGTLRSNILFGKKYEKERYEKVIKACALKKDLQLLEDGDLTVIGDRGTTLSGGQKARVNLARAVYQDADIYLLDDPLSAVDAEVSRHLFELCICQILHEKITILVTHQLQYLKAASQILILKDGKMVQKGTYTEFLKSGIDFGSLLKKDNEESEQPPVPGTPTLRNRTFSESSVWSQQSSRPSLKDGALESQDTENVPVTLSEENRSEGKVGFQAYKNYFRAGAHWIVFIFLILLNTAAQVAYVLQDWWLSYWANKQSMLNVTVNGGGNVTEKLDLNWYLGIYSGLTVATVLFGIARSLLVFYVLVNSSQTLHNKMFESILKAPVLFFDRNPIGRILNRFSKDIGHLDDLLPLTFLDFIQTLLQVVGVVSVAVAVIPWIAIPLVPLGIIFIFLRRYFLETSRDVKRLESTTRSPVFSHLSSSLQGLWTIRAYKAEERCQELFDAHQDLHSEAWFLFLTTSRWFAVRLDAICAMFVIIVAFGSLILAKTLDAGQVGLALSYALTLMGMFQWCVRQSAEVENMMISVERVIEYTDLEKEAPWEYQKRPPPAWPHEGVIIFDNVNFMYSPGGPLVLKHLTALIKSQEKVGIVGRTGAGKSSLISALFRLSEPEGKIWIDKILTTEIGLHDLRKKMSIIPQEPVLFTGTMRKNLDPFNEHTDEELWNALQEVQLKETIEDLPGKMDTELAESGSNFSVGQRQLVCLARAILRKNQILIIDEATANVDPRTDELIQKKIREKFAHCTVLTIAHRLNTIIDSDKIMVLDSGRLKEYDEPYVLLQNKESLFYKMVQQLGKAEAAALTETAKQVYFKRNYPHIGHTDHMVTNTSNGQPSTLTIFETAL
Procedure: The functional impact of lixivaptan, its three metabolites and tolvaptan on the human ABC (efflux) transporters BSEP and MRP3 and MRP4 was assessed for this project using in vitro vesicular transport inhibition assays. The inhibition of the human SLC (uptake) transporter NTCP was assessed using CHO cells stably expressing human NTCP. The concentration ranges used for the five test articles was determined based on the solubility of each compound in the assay solution. All transporter inhibition assays were conducted in triplicate by Solvo Biotechnology (Szeged, Hungary). For the simulation of bile acid transporter inhibition by lixivaptan in […], parameter values were selected for BSEP canalicular transport, basolateral transport (encompassing both MRP3 and MRP4), and NTCP transport. The parameter values for each include the inhibition constant, defined as the IC50 or Ki value, and the inhibition type, defined as competitive, non-competitive, or mixed inhibition.

HepG2 cells = test: ROS formation by DHE fluorescence (high-content imaging); type: cell-based; conditions: 24 hour incubation
Procedure: To assess the potential for lixivaptan and its metabolites to induce oxidative stress, assays to measure formation of reactive oxygen species (ROS) were conducted by Cyprotex and overseen by the authors. HepG2 cells were cultured in triplicate in the presence of each test article for 1 or 24 hours; the range of concentrations used for each test article is listed in Table B1. ROS formation was assayed by DHE fluorescence. Two independent studies in triplicate were conducted on HepG2 cells.

RNS/ROS formation = test: RNS/ROS production parameter from DILIsym simulation of ROS data; conditions: calculated from 24 h HepG2 ROS data; higher = higher risk
Procedure: To define the DILIsym parameter values for lixivaptan- and WAY-138451-mediated oxidative stress, the 24 h in vitro data were simulated within DILIsym (Fig. 5). The intracellular concentration of each compound was measured by LC/MS/MS analysis. For lixivaptan, the measured intracellular concentration at each dose was used to parameterize the model. For WAY-138451, however, the LC/MS/MS data was inconsistent at low doses due to lower limit of detection issues. Thus, the mean measured cell-to-nominal-media ratio (0.672) was used to estimate intracellular concentrations at each dose. Reproduction of lixivaptan- and WAY-138451-mediated induction of oxidative stress defined the relationship between liver compound concentration and ROS formation with the reactive nitrogen/oxygen species (RNS/ROS) production rate constants listed in Table 2. […]
To define the DILIsym parameter values for lixivaptan- and WAY-138451-mediated oxidative stress, the 24 hour in vitro data were simulated within DILIsym (Figure B12). The intracellular concentration of each compound was measured by LC/MS/MS analysis. For lixivaptan, the measured intracellular concentration at each dose was used to parameterize the model. […] Thus, the mean measured cell-to-nominal-media ratio (0.672) was used to estimate intracellular concentrations at each dose. […]

human MRP4 = molecular target: T2, human MRP4 (Homo sapiens, UniProt O15439); test: MRP4 vesicular transport inhibition assay (E217βG, HEK-293 cell membrane vesicles); type: biochemical
T2 construct: host or cells: HEK-293 cell membrane vesicles
T2 sequence (O15439 1-1325): T1 sequence (O15439 1-1325)
Procedure: The functional impact of lixivaptan, its three metabolites and tolvaptan on the human ABC (efflux) transporters BSEP and MRP3 and MRP4 was assessed for this project using in vitro vesicular transport inhibition assays. The inhibition of the human SLC (uptake) transporter NTCP was assessed using CHO cells stably expressing human NTCP. The concentration ranges used for the five test articles was determined based on the solubility of each compound in the assay solution. All transporter inhibition assays were conducted in triplicate by Solvo Biotechnology (Szeged, Hungary).
Figure B2. […] See Appendix A for more details.

Question: `Cc1ccc(F)cc1C(=O)Nc1ccc(C(=O)N2Cc3cccn3Cc3ccccc32)c(Cl)c1` [Lixivaptan, lixivaptan] was tested. Which IC50 [1] did it give?
Answer: 70 µM

Question: What about the “induction of oxidative stress in HepG2 cells” value (HepG2 cells) of the same compound?
Answer: evidence for induction of oxidative stress

Question: And the “RNS/ROS production rate constant (DILIsym parameter)” value (RNS/ROS formation)?
Answer: 0.151 M⁻¹ s⁻¹

Question: What about the “inhibition of MRP4-mediated probe substrate accumulation” value (human MRP4) of the same compound?
Answer: inhibited
